Reference: publication PMC10215400 (Antibiotics, 2023)

How the values were obtained:
[1] = target: T1, KPC-2 β-lactamase D179Y variant (Klebsiella pneumoniae, UniProt Q93LQ9, D178Y); type: binding
[2] = target: T2, KPC-2 β-lactamase D179N variant (Klebsiella pneumoniae, UniProt Q93LQ9, D178N); assay: time-based mass spectrometry ([…]); type: binding
[3] = target: T2, KPC-2 β-lactamase D179N variant; assay: stopped-flow hydrolysis progress curves with purified enzyme; timed mass spectrometry; type: biochemical
[4] = target: T1, KPC-2 β-lactamase D179Y variant; assay: time-based mass spectrometry of acyl-complex ([…]); no turnover in stopped-flow; type: binding
KPC-2 β-lactamase = KPC-2 β-lactamase (Klebsiella pneumoniae, UniProt Q93LQ9); assay: stopped-flow hydrolysis progress curves with purified enzyme; type: biochemical
KPC-2 β-lactamase, sequence (Q93LQ9 25-293 limits assumed): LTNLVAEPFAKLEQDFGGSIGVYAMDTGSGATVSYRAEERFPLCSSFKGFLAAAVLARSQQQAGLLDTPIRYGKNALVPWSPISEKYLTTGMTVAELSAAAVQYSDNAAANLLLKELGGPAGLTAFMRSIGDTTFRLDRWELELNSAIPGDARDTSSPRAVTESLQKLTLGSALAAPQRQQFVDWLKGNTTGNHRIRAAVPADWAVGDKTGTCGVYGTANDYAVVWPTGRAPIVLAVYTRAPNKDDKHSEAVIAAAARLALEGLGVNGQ

T1 sequence (Q93LQ9 25-293 D178Y): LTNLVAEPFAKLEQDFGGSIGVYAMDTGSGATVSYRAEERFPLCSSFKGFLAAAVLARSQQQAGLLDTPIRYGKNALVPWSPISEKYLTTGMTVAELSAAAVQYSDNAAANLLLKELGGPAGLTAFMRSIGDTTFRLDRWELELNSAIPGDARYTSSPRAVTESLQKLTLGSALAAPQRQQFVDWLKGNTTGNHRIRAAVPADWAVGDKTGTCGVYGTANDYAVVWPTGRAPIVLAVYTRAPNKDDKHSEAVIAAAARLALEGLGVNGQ
T2 sequence (Q93LQ9 25-293 D178N): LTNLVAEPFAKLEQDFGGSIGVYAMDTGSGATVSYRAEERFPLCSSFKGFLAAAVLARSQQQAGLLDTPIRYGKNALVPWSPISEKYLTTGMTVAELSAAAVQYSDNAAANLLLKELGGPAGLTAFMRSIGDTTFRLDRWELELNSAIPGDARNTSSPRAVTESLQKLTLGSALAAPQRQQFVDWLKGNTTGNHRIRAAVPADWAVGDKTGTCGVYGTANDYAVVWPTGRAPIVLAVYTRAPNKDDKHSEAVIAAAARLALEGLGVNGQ

Compound	time-based mass spectrometry of acyl-complex (1:1) [1]	time-based mass spectrometry (1:1) [2]	stopped-flow hydrolysis progress curves with purified enzyme; timed mass spectro [3]	time-based mass spectrometry of acyl-complex (1:1); no turnover in stopped-flow [4]	stopped-flow hydrolysis progress curves with purified enzyme (KPC-2 β-lactamase)
NC(=O)[C@@H]1CC[C@@H]2CN1C(=O)N2OS(=O)(=O)O [avibactam]	relebactam is slower to form an acyl complex with the D179Y variant compared to avibactam	Relebactam and avibactam behaved similarly vs. the D179N variant.			
C[C@@H](O)[C@H]1C(=O)N2C(C(=O)O)=C(SCCN=CN)C[C@H]12 [imipenem]			KPC-2 (blue line) and the D179N variant (yellow line) both hydrolyzed imipenem	acyl-complexes with imipenem and ceftazidime with the D179N variant was captured less often compared to the D179Y variant	KPC-2 (blue line) and the D179N variant (yellow line) both hydrolyzed imipenem
O=C(NC1CCNCC1)[C@@H]1CC[C@@H]2CN1C(=O)N2OS(=O)(=O)O [relebactam]	relebactam is slower to form an acyl complex with the D179Y variant compared to avibactam				
